{
  "source": "ChEMBL document CHEMBL1146667",
  "about": "“Benzodiazepine-based selective inhibitors of mitochondrial F1F0 ATP hydrolase” (Bioorg Med Chem Lett, 2004)",
  "key": {"[1]": {"molecular_target": "T1, Mitochondrial complex V; ATP synthase (Bos taurus, UniProt P00829+P05630+P05631+P05632)", "T1 sequence (P05632 whole entry)": "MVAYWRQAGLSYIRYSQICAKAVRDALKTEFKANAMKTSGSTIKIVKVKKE", "T1 sequence (P00829 whole entry)": "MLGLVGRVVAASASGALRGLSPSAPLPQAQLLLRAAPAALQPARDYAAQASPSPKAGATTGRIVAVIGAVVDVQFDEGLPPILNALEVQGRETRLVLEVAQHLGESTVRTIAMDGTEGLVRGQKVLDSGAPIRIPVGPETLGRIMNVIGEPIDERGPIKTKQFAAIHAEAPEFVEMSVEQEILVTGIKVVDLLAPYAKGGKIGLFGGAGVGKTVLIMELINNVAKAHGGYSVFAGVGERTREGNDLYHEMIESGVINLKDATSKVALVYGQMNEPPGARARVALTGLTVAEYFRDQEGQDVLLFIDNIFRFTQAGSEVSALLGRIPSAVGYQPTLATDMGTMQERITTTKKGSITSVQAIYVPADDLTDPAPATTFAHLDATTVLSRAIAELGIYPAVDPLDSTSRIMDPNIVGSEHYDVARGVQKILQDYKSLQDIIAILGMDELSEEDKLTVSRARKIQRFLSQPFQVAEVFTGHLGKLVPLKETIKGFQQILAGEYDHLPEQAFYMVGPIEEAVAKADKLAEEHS", "T1 sequence (P05631 whole entry)": "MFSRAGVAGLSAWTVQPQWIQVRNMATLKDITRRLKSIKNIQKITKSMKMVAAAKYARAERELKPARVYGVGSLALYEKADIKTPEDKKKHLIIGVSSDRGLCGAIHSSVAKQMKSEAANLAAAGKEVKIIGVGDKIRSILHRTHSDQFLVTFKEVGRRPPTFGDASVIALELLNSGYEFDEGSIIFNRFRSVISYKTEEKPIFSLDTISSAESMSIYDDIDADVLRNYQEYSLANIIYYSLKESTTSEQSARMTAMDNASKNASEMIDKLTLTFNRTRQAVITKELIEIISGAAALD", "T1 sequence (P05630 whole entry)": "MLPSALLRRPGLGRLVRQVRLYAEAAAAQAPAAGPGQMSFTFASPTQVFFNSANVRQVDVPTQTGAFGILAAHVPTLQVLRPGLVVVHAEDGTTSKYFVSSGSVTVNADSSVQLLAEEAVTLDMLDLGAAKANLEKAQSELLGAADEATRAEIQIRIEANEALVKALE", "test": "Inhibitory activity against bovine mitochondrial F1F0-ATP hydrolase", "format": "protein-complex assay"}, "[2]": {"molecular_target": "T1, Mitochondrial complex V; ATP synthase", "test": "Inhibitory activity against bovine mitochondrial F1F0-ATP synthase", "format": "protein-complex assay"}, "Cytochrome P450 2C9 [3]": {"molecular_target": "T2, Cytochrome P450 2C9 (Homo sapiens, UniProt P11712)", "T2 sequence (P11712 whole entry)": "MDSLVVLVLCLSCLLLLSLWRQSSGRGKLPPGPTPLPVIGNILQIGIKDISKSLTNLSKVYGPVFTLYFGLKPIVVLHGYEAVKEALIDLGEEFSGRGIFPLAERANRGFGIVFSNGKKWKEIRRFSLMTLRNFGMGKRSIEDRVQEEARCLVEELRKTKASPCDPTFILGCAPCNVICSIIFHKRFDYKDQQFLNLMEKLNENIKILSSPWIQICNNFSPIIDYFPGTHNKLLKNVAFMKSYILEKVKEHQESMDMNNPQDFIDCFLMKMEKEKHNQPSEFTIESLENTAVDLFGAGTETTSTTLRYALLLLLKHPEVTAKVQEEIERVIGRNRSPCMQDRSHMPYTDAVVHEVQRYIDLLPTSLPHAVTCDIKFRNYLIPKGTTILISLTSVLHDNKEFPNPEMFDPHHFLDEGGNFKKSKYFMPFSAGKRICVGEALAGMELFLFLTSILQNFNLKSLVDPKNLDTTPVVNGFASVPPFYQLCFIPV", "test": "Inhibitory activity against cytochrome P450 2C9", "format": "ADME"}, "Cytochrome P450 2C9 [4]": {"molecular_target": "T2, Cytochrome P450 2C9", "test": "Inhibitory activity against ccytochrome P450 2C9"}},
  "data": [
    {"compound": "O=[N+]([O-])c1cccc(S(=O)(=O)N2Cc3ccccc3N(Cc3cnc[nH]3)C(CCc3ccccc3)C2)c1", "note": "(centres undefined)", "values": [
      {"measurement": "IC50", "setting": "[1]", "result": 423, "unit": "nM"},
      {"measurement": "IC50", "setting": "[2]", "result": "> 30000", "unit": "nM"}
    ]},
    {"compound": "Cc1nc(CN2c3ccccc3CN(S(=O)(=O)c3ccc(F)cc3)CC2CCc2ccccc2)c[nH]1", "note": "(centres undefined)", "values": [
      {"measurement": "IC50", "setting": "[1]", "result": 9620, "unit": "nM"},
      {"measurement": "IC50", "setting": "[2]", "result": "> 30000", "unit": "nM"}
    ]},
    {"compound": "O=S(=O)(N1Cc2ccccc2N(Cc2c[nH]cn2)C(CCc2ccccc2)C1)C(F)(F)F", "note": "(centres undefined)", "values": [
      {"measurement": "IC50", "setting": "[1]", "result": 77, "unit": "nM"},
      {"measurement": "IC50", "setting": "[2]", "result": "> 30000", "unit": "nM"}
    ]},
    {"compound": "O=S(=O)(c1cccs1)N1Cc2ccccc2N(Cc2cnc[nH]2)C(CCc2ccccc2)C1", "note": "(centres undefined)", "values": [
      {"measurement": "IC50", "setting": "[1]", "result": 636, "unit": "nM"},
      {"measurement": "IC50", "setting": "[2]", "result": "> 30000", "unit": "nM"}
    ]},
    {"compound": "O=S(=O)(c1ccc(F)cc1)N1Cc2ccccc2N(Cc2c[nH]cn2)C(CCc2ccccc2)C1", "note": "(centres undefined)", "values": [
      {"measurement": "IC50", "setting": "[1]", "result": 221, "unit": "nM"},
      {"measurement": "IC50", "setting": "[2]", "result": "> 30000", "unit": "nM"}
    ]},
    {"compound": "O=S(=O)(c1cccc2nonc12)N1Cc2ccccc2N(Cc2cnc[nH]2)C(CCc2ccccc2)C1", "note": "(centres undefined)", "values": [
      {"measurement": "IC50", "setting": "[1]", "result": 1780, "unit": "nM"},
      {"measurement": "IC50", "setting": "[2]", "result": "> 30000", "unit": "nM"}
    ]},
    {"compound": "O=S(=O)(Cc1ccccc1)N1Cc2ccccc2N(Cc2c[nH]cn2)C(CCc2ccccc2)C1", "note": "(centres undefined)", "values": [
      {"measurement": "IC50", "setting": "[1]", "result": 2410, "unit": "nM"},
      {"measurement": "IC50", "setting": "[2]", "result": "> 30000", "unit": "nM"}
    ]},
    {"compound": "CC(=O)Nc1ccc(S(=O)(=O)N2Cc3ccccc3N(Cc3cnc[nH]3)C(CCc3ccccc3)C2)cc1", "note": "(centres undefined)", "values": [
      {"measurement": "IC50", "setting": "[1]", "result": 2980, "unit": "nM"},
      {"measurement": "IC50", "setting": "[2]", "result": "> 30000", "unit": "nM"}
    ]},
    {"compound": "O=S(=O)(c1ccccc1)N1Cc2ccccc2N(Cc2cnc[nH]2)C(CCc2ccccc2)C1", "note": "(centres undefined)", "values": [
      {"measurement": "IC50", "setting": "[1]", "result": 282, "unit": "nM"},
      {"measurement": "IC50", "setting": "[2]", "result": "> 30000", "unit": "nM"}
    ]},
    {"compound": "Cc1nc[nH]c1CN1c2ccccc2CN(S(=O)(=O)c2ccc(F)cc2)CC1CCc1ccccc1", "note": "(centres undefined)", "values": [
      {"measurement": "IC50", "setting": "[1]", "result": 151, "unit": "nM"},
      {"measurement": "IC50", "setting": "[2]", "result": "> 30000", "unit": "nM"}
    ]},
    {"compound": "O=S(=O)(c1cc(Cl)ccc1Cl)N1Cc2ccccc2N(Cc2cnc[nH]2)C(CCc2ccccc2)C1", "note": "(centres undefined)", "values": [
      {"measurement": "IC50", "setting": "[1]", "result": 158, "unit": "nM"},
      {"measurement": "IC50", "setting": "[2]", "result": "> 30000", "unit": "nM"}
    ]},
    {"compound": "Cc1[nH]cnc1CN1c2ccccc2CN(S(=O)(=O)c2ccc(C(C)(C)C)cc2)CC1CCc1ccccc1", "note": "(centres undefined)", "values": [
      {"measurement": "IC50", "setting": "Cytochrome P450 2C9 [3]", "result": 3000, "unit": "nM"},
      {"measurement": "IC50", "setting": "[1]", "result": 77, "unit": "nM"},
      {"measurement": "IC50", "setting": "[2]", "result": "> 30000", "unit": "nM"}
    ]},
    {"compound": "O=S(=O)(c1cccc2cccnc12)N1Cc2ccccc2N(Cc2c[nH]cn2)C(CCc2ccccc2)C1", "note": "(centres undefined)", "values": [
      {"measurement": "IC50", "setting": "[1]", "result": 2930, "unit": "nM"},
      {"measurement": "IC50", "setting": "[2]", "result": "> 30000", "unit": "nM"}
    ]},
    {"compound": "Cc1nc[nH]c1CN1c2ccccc2CN(Cc2ccc(C(C)(C)C)cc2)CC1CCc1ccccc1", "note": "(centres undefined)", "values": [
      {"measurement": "IC50", "setting": "[1]", "result": 2350, "unit": "nM"},
      {"measurement": "IC50", "setting": "[2]", "result": "> 30000", "unit": "nM"}
    ]},
    {"compound": "N#Cc1ccc(S(=O)(=O)N2Cc3ccccc3N(Cc3cnc[nH]3)C(CCc3ccccc3)C2)cc1", "note": "(centres undefined)", "values": [
      {"measurement": "IC50", "setting": "[1]", "result": 255, "unit": "nM"},
      {"measurement": "IC50", "setting": "[2]", "result": "> 30000", "unit": "nM"}
    ]},
    {"compound": "O=S(=O)(c1ccc(O)cc1)N1Cc2ccccc2N(Cc2cnc[nH]2)C(CCc2ccccc2)C1", "note": "(centres undefined)", "values": [
      {"measurement": "IC50", "setting": "[1]", "result": 667, "unit": "nM"},
      {"measurement": "IC50", "setting": "[2]", "result": "> 30000", "unit": "nM"}
    ]},
    {"compound": "CC(C)(C)c1ccc(S(=O)(=O)N2Cc3ccccc3N(Cc3c[nH]cn3)C(CCc3ccccc3)C2)cc1", "note": "(centres undefined)", "values": [
      {"measurement": "IC50", "setting": "Cytochrome P450 2C9 [4]", "result": 38, "unit": "nM"},
      {"measurement": "IC50", "setting": "[1]", "result": 8, "unit": "nM"},
      {"measurement": "IC50", "setting": "[2]", "result": "> 30000", "unit": "nM"}
    ]},
    {"compound": "COc1ccc(S(=O)(=O)N2Cc3ccccc3N(Cc3c[nH]cn3)C(CCc3ccccc3)C2)cc1", "note": "(centres undefined)", "values": [
      {"measurement": "IC50", "setting": "[1]", "result": 77, "unit": "nM"},
      {"measurement": "IC50", "setting": "[2]", "result": "> 30000", "unit": "nM"}
    ]},
    {"compound": "N#Cc1ccc(S(=O)(=O)N2Cc3ccccc3N(Cc3c[nH]cn3)C(CCc3ccccc3)C2)c(Cl)c1", "note": "(centres undefined)", "values": [
      {"measurement": "IC50", "setting": "[1]", "result": 939, "unit": "nM"},
      {"measurement": "IC50", "setting": "[2]", "result": "> 30000", "unit": "nM"}
    ]},
    {"compound": "O=S(=O)(c1cccc2ccccc12)N1Cc2ccccc2N(Cc2cnc[nH]2)C(CCc2ccccc2)C1", "note": "(centres undefined)", "values": [
      {"measurement": "IC50", "setting": "[1]", "result": 338, "unit": "nM"},
      {"measurement": "IC50", "setting": "[2]", "result": "> 30000", "unit": "nM"}
    ]},
    {"compound": "Cc1nc[nH]c1CN1c2ccccc2CN(S(=O)(=O)c2ccc(Cl)c(Cl)c2)CC1CCc1ccccc1", "note": "(centres undefined)", "values": [
      {"measurement": "IC50", "setting": "Cytochrome P450 2C9 [3]", "result": 2000, "unit": "nM"},
      {"measurement": "IC50", "setting": "[1]", "result": 22, "unit": "nM"},
      {"measurement": "IC50", "setting": "[2]", "result": "> 30000", "unit": "nM"}
    ]},
    {"compound": "CC(C)(C)c1ccc(CN2Cc3ccccc3N(Cc3cnc[nH]3)C(CCc3ccccc3)C2)cc1", "note": "(centres undefined)", "values": [
      {"measurement": "IC50", "setting": "[1]", "result": 2140, "unit": "nM"},
      {"measurement": "IC50", "setting": "[2]", "result": "> 30000", "unit": "nM"}
    ]},
    {"compound": "CC(C)(C)c1ccc(S(=O)(=O)N2Cc3ccccc3N(Cc3ncc[nH]3)C(CCc3ccccc3)C2)cc1", "note": "(centres undefined)", "values": [
      {"measurement": "IC50", "setting": "[1]", "result": "> 10000", "unit": "nM"},
      {"measurement": "IC50", "setting": "[2]", "result": "> 30000", "unit": "nM"}
    ]}
  ]
}
